Calls of active or inactive are those of the source. The calls are words filed in the database; no cut-off is given here.
Experiments:
[1] = Cytotoxicity against human RD cells; assay type: toxicity, cell-based
Enterovirus A71 [2] = test: Antiviral activity against Enterovirus A71 infected in human RD cells assessed as reduction in viral replication incubated for 72 hrs by RT-qPCR analysis; assay type: functional, organism-based; settings: Enterovirus A
Enterovirus A71 [3] = test: Antiviral activity against Enterovirus A71 infected in human MRC5 cells assessed as reduction in viral replication incubated for 72 hrs by RT-qPCR analysis; assay type: functional, organism-based; settings: Enterovirus A, MRC5, 72 h
[4] = Cytotoxicity against human MRC5 cells; assay type: toxicity, cell-based
[5] = Selectivity index, ratio of CC50 for cytotoxicity against human MRC5 cells to EC50 for antiviral activity against Enterovirus A71 infected in human MRC5 cells; assay type: toxicity, cell-based; settings: read-out: Ratio CC50/EC50
[6] = Genotoxicity in Chinese hamster CHO-K1 cells assessed as increase in micronucleated cell rate at […] incubated for 3 hrs in presence of Sprague-Dawley rat liver S9 fraction by Giemsa staining based micronucleus assay; assay type: toxicity, subcellular, Cricetulus griseus; settings: s9, 3 h, dose lower 1 g/L
[7] = Cytotoxicity against Chinese hamster CHO-K1 cells incubated for 24 hrs by neutral red dye uptake assay; assay type: toxicity, cell-based, Cricetulus griseus
[8] = Selectivity index, ratio of CC50 for cytotoxicity against human RD cells to EC50 for antiviral activity against Enterovirus A71 infected in human RD cells; assay type: toxicity, cell-based; settings: read-out: Ratio CC50/EC50
[9] = Genotoxicity in Chinese hamster CHO-K1 cells assessed as increase in micronucleated cell rate at […] incubated for 3 hrs in absence of Sprague-Dawley rat liver S9 fraction by Giemsa staining based micronucleus assay; assay type: toxicity, Cricetulus griseus; settings: cho-k1, 3 h, dose lower 1 g/L
Enterovirus A71 [10] = test: Antiviral activity against Enterovirus A71 infected in human MRC5 cells assessed as inhibition of viral replication at 0.31 to 40 uM incubated for 72 hrs by RT-qPCR analysis relative to control; assay type: functional; settings: dose 0.31-40 µM
Enterovirus A71 [11] = test: Antiviral activity against Enterovirus A71 infected in human RD cells assessed as inhibition of viral replication at 0.31 to 40 uM incubated for 72 hrs by RT-qPCR analysis relative to control; assay type: functional; settings: dose 0.31-40 µM
rhinovirus B14 = test: Antiviral activity against Human rhinovirus B14 infected in human HeLa-RH cells assessed as inhibition of virus induced cytopathic effect incubated for 3 days by MTS assay; assay type: functional, organism-based; settings: Rhinovirus B, 72 h

c1ccc2nc(SCc3ccc(-n4cncn4)cc3)cnc2c1
CC50 [1]: > 40 µM
EC50 (Enterovirus A71 [2]): 6.8 µM
EC50 (Enterovirus A71 [3]): 38.1 µM
CC50 [4]: > 40 µM

OCc1ccc(-c2ccc(SCc3ccc(-c4ccc(N5CCOCC5)cc4)cc3)nc2)cc1
selectivity ratio [5]: > 3.1
Activity [6]: Non-Toxic
CC50 at 24 h [7]: 45.8 µM
CC50 [1]: > 40 µM
selectivity ratio [8]: > 2
EC50 (Enterovirus A71 [2]): 19.7 µM
Activity [9]: Non-Toxic
EC50 (Enterovirus A71 [3]): 6.38 µM
CC50 [4]: > 20 µM

FC(F)(F)c1ccc(-c2ccc(SCc3ccc(-n4cncn4)cc3)cc2)cc1
EC50 (Enterovirus A71 [3]): > 20 µM

OCc1ccc(-c2ccc(SCc3ccc(-c4ccc(C(F)(F)F)cc4)cc3)nc2)cc1
EC50 (Enterovirus A71 [3]): > 20 µM

Cn1nccc1-c1ccc(SCc2ccc(-n3cncn3)cc2)cc1
selectivity ratio [5]: > 35
Activity [6]: Non-Toxic
CC50 at 24 h [7]: 44.8 µM
CC50 [1]: > 40 µM
selectivity ratio [8]: > 9
inhibition (INH) (Enterovirus A71 [10]): 100%
EC50 (Enterovirus A71 [2]): 4.38 µM
Activity [9]: Non-Toxic
inhibition (INH) (Enterovirus A71 [11]): 100%
EC50 (Enterovirus A71 [3]): 0.57 µM
CC50 [4]: > 20 µM

Fc1ccc(-c2ccc(SCc3ccc(-n4cncn4)cc3)cc2)cc1C(F)(F)F
EC50 (Enterovirus A71 [3]): > 20 µM

COc1ccc2oc(SCc3ccc(-c4ccc(N(C)C)cc4)cc3)nc2c1
EC50 (Enterovirus A71 [3]): > 20 µM

CCOc1ccc(-c2ccc(SCc3ccc(-n4cncn4)cc3)nc2)cc1
EC50 (Enterovirus A71 [3]): > 20 µM

Cc1ccc2oc(SCc3ccc(-n4cncn4)cc3)nc2c1
EC50 (Enterovirus A71 [3]): > 20 µM

CN(C)c1ccc(-c2ccc(SCc3ccc(-n4cncn4)cc3)cc2)cc1
EC50 (Enterovirus A71 [3]): > 20 µM

COc1ccc2oc(SCc3ccc(-n4cncn4)cc3)nc2c1
selectivity ratio [5]: < 1
Activity [6]: Non-Toxic
CC50 at 24 h [7]: 32.1 µM
CC50 [1]: 22.1 µM
EC50 (Enterovirus A71 [2]): 28.5 µM
Activity [9]: Non-Toxic
EC50 (Enterovirus A71 [3]): 1.67 µM
CC50 [4]: > 20 µM

COc1ccc2[nH]c(SCc3ccc(-n4cncn4)cc3)nc2c1
CC50 [1]: > 40 µM
EC50 (Enterovirus A71 [2]): > 40 µM
EC50 (Enterovirus A71 [3]): > 40 µM
CC50 [4]: > 40 µM

O=Cc1ccc(-c2ccc(SCc3ccc(-n4cncn4)cc3)nc2)cc1
EC50 (Enterovirus A71 [3]): > 20 µM

OCc1ccc(-c2ccc(SCc3ccc(-c4ccc(O)cc4)cc3)nc2)cc1
EC50 (Enterovirus A71 [3]): > 20 µM

c1ccc2[nH]c(SCc3ccc(-n4cncn4)cc3)nc2c1
EC50 (Enterovirus A71 [3]): > 20 µM

Cc1cccc2c1[nH]c1nc(SCc3ccc(-n4cncn4)cc3)nnc12
CC50 [1]: 8.89 µM
EC50 (Enterovirus A71 [2]): 4.65 µM
EC50 (Enterovirus A71 [3]): 26.5 µM
CC50 [4]: 15.6 µM

FC(F)(F)c1ccc2c(SCc3ccc(-n4cncn4)cc3)ccnc2c1
CC50 [1]: 20.8 µM
EC50 (Enterovirus A71 [2]): 12.7 µM
EC50 (Enterovirus A71 [3]): 28 µM
CC50 [4]: > 40 µM

c1ccc2oc(SCc3ccc(-n4cncn4)cc3)nc2c1
EC50 (Enterovirus A71 [3]): > 20 µM

Clc1ccc2oc(SCc3ccc(-n4cncn4)cc3)nc2c1
EC50 (Enterovirus A71 [3]): > 20 µM

c1ccc2sc(SCc3ccc(-n4cncn4)cc3)nc2c1
EC50 (Enterovirus A71 [3]): > 20 µM

CCOc1ccc(-c2ccc(CSc3ccc(-c4ccc(CO)cc4)cc3)cc2)cc1
EC50 (Enterovirus A71 [3]): > 20 µM

Cc1ccc(-c2ccc(SCc3ccc(-n4cncn4)cc3)cc2)cc1
EC50 (Enterovirus A71 [3]): > 20 µM

OCc1ccc(-c2ccc(SCc3ccc(-n4cncn4)cc3)cc2)cc1
EC50 (Enterovirus A71 [3]): > 20 µM

OCc1ccc(-c2ccc(SCc3ccc(-n4cncn4)cc3)nc2)cc1
selectivity ratio [5]: > 68
Activity [6]: Non-Toxic
CC50 at 24 h [7]: 41.3 µM
CC50 [1]: > 40 µM
selectivity ratio [8]: > 24
inhibition (Enterovirus A71 [10]): Active
EC50 (Enterovirus A71 [2]): 1.66 µM
Activity [9]: Non-Toxic
inhibition (Enterovirus A71 [11]): Active
EC50 (Enterovirus A71 [3]): 0.29 µM
CC50 [4]: > 20 µM

COc1cc(C[C@H](O)c2ccc(C#N)cc2)c([N+](=O)[O-])cc1OC
EC50 (rhinovirus B14): 2000 nM

CN(C)c1ccc(-c2ccc(CSc3ccc(-c4ccc(CO)cc4)cn3)cc2)cc1
EC50 (Enterovirus A71 [3]): > 20 µM

CN1CCC(c2ccc(-c3ccc(CSc4ccc(-c5ccc(CO)cc5)cn4)cc3)cc2)CC1
EC50 (Enterovirus A71 [3]): > 20 µM

Cn1nccc1-c1ccc(SCc2ccc(-n3cncn3)cc2)nc1
EC50 (Enterovirus A71 [3]): > 20 µM

CCOc1noc2cc(OCCC3CCN(c4ccc(C)nn4)CC3)ccc12 [VAPENDAVIR]
CC50 [1]: > 63 µM
CC50 [4]: > 20 µM

c1ccc2nc(SCc3ccc(-n4cncn4)cc3)ccc2c1
CC50 [1]: > 40 µM
EC50 (Enterovirus A71 [2]): > 40 µM
EC50 (Enterovirus A71 [3]): 39.7 µM
CC50 [4]: > 40 µM

CCOc1ccc(-c2ccc(SCc3ccc(-n4cncn4)cc3)cc2)cc1
EC50 (Enterovirus A71 [3]): > 20 µM

c1ncn(-c2ccc(CSc3ccc(-c4ccc(N5CCOCC5)cc4)cc3)cc2)n1
EC50 (Enterovirus A71 [3]): > 20 µM

CCOc1ccc(-c2ccc(CSc3nc4cc(OC)ccc4o3)cc2)cc1
EC50 (Enterovirus A71 [3]): > 20 µM

CCOc1ccc(-c2ccc(CSc3ccc(-c4ccc(CO)cc4)cn3)cc2)cc1
EC50 (Enterovirus A71 [3]): > 20 µM

From ChEMBL document CHEMBL5608217, “New potent EV-A71 antivirals targeting capsid” (Eur J Med Chem, 2024)
